# Patent EP0302967A2, “Quinazoline derivative, processes for its production, and cerebral dysfunction remedying agent comprising it as active ingredient” (priority 1987, dated 1989)
# Read-outs that look alike come from different tables or passages of the source. Marks after values point to notes of the source that are not given here.
# What was measured:
# [1] = system: Male mice of the ddY strain; test: Anti-hypoxic activity: brain protection against complete ischemia by decapitation (gasping persistent time); assay type: in vivo; details: decapitated one hour later, control group taken as 100 %, mean ± standard error
# Protocol: Male mice of the ddY strain (body weight 20-25g, 5 per group) were orally given the compound of the invention (dihydrochloride) dissolved in 1% gum arabic solution. One hour later, the mice were decapitated, and the time elapsed until a gasping-like mouth opening movement appearing after decapitation ceased (gasping persistent time) was measured, and compared with that obtained with the control group (the group to which 1% gum arabic solution was administered).
# [2] = Acute toxicity (LD50 by the Weil method); details: male, ddY, mouse, in vivo, dead animals counted one week later, read-out: LD₅₀
# Protocol: Male ddY mice (body weight 20 - 26 g, 5 per group) were allowed to fast overnight. The compound of this invention (dihydrochloride) dissolved in distilled water was orally (p.o.) administered. From the number of dead animals counted one week later, the LD₅₀ (p.o.) was calculated by the Weil method.
# Then, the compound of this invention (dihydrochloride) was dissolved in saline and intraperitoneally (i.p.) administered to the mice, and the LD₅₀ value (i.p.) was measured similarly.
# [3] = system: Male mice of the ddY strain; test: Anti-CO2-induced amnesia activity (one-trial passive avoidance response); assay type: in vivo; details: retrieval 24 hours later, max 300 seconds
# Protocol: Male mice of the ddY strain (body weight 20 - -30 g, 30 per group) were used. Anti-CO₂-induced amnesia activity was determined by using one-trial passive avoidance response as an index. The experimental device consisted of two compartments, one illuminated and the other dark, with a guillotine door in the boundary of the two compartments permitting free passage of the mice through it. In an acquisition trial, a mouse was placed in the illuminated compartment and allowed to enter the dark one. As soon as the mouse entered the dark compartment, the door was shut, and an electrical shock (0.5 mA, 0.2 sec.) was applied through the grid floor. Thus, the mouse was caused to learn that it receives an electric shock upon entering the dark room. In a retrieval trial, the mouse was again placed in the illuminated compartment 24 hours after the acquisition trial, and the time elapsed until it entered the dark compartment (response latency) was measured to an extent of 300 seconds at the longest. (One-trial passive avoidance response) Treatment of inducing amnesia by carbon dioxide was performed by putting the mouse in a 1.6-liter plastic container having a gas intake opening and an gas discharging opening immediately after the acquisition trial, and passing 100% carbon dioxide gas for 14 seconds at a flow rate of 8 liters/min. […]
# [4] = system: Male mice of the ddY strain; test: Anti-hypoxic activity: brain protection against normobaric hypoxia (survival time in 100% nitrogen); assay type: in vivo; details: one hour before 100% nitrogen, control group taken as 100 %, mean ± standard error, p<0.01
# Protocol: Male mice of the ddY strain (body weight 20-25g, 5 per group) were orally administered with the compound of the invention (dihydrochloride) dissolved in a 1% gum arabic solution. One hour after the administration, the mouse was put in a transparent plastic container (capacity 27 liters) through which 100% nitrogen was passed at a rate of 80 liters/min. The time elapsed until the animal died (the survival time) was measured, and compared with that obtained with the control group (the group to which 1% gum arabic solution was administered).
# [5] = system: Male mice of the ddY strain; test: Anti-scopolamine-induced amnesia activity (one-trial passive avoidance response); assay type: in vivo; details: scopolamine hydrobromide 1 mg/kg i.p.; for Mean latency (seconds): p<0.01
# Protocol: Male mice of the ddY strain (body weight 20-25g, 20 per group) were used, and the activity of the test compound on deficit of memory induced by scopolamine hydrobromide (a muscarinic acetylcholine receptor antagonist) was examined using one-trial passive avoidance response as an index. Using the same experimental device as in Test Example 1, the same acquisition trial and retrieval trial as in Test Example 1 were carried out (one-trial passive avoidanse response). Scopolamine hydrobromide (1 mg/kg) was intra peritoneally (i.p.) administered to the animals 20 minutes before the acquisition trial. The compound of the invention (dihydrochloride) was dissolved in 1 % gum arabic solution, and intraperitoneally administered immediately after the acquisition trial, and orally (p.o.) administered 60 minutes before the acquisition trial. A 1% solution of gum arabic was administered to the control group.
# [6] = system: brain homogenate; test: Lipid peroxide formation inhibiting activity (antioxidant activity), MDA formed by autoxidation; assay type: biochemical, Rats; details: for Antioxidant activity (n=4) Mean ± standard error (%): percent inhibition of autoxidation on the brain homogenate, 37 °C, 30 minutes
# Protocol: The effect of the test compound on the formation of lipid peroxide by autoxidation was determined by the amount of malondialdehyde (MDA) formed.
# Rats were decapitated, and the cerebrum was taken out and homogenized with 4 ml, per gram of the cerebrum, of 50 mM phosphate saline-buffer (pH 7.4) and centrifuged (2800 rpm, 10 minutes). The supernatant was taken into a 10 ml test tube to obtain a brain homogenate. It was frozen at -70 °C and stored.
# The brain homogenate was defrozen, and immediately then, diluted to 10-fold with the aforesaid phosphate saline-buffer. A 2 ml portion of the dilution was taken into a 10 ml test tube cooled with ice, and used to measure its antioxidant activity. Twenty microliters of an aqueous solution of the compound of this invention (dihydrochloride) was added. The amount of MDA immediately after the addition was measured as shown below (MDA 0 time). The mixture was incubated at 37 °C for 30 minutes. The reaction was stopped by adding 400 microliters of 35% perchloric acid solution. After cooling with ice, the cooled mixture was centrifuged (2800 rpm, 10 minutes). To 1 ml of the supernatant, 0.5 ml of 0.5 % thiobarbituric acid solution dissolved in 50% acetic acid solution was added, and the mixture was heated at 100 °C for 15 minutes. After cooling with ice, the absorbance of the solution at 532 nm was measured, and the amount of MDA formed was determined (MDAtest).
# As a control, the amount of MDA (MDAcont) was determined as above.
# The antioxidant activity of the compound of the invention was expressed in terms of percent inhibition of autoxidation on the brain homogenate. The calculation was based on the following equation. [formula]
compound,measurement,setting,value
"C=CCN1CCN(c2nc(OCCCCC)c3ccccc3n2)CC1.Cl.Cl [Compound of the invention (2HCl), 2-(4-allyl-1-piperazinyl)-4-pentyloxyquinazoline dihydrochloride]",Mean gasping persistent time (%),[1]; 10 mg/kg orally,107 ± 6%
same,Mean gasping persistent time (%),"[1]; 30 mg/kg orally, p<0.01",139 ± 6 ** 2) %
same,Mean gasping persistent time (%),"[1]; 100 mg/kg orally, p<0.01",187 ± 8 %
same,LD50 at 1 week,"[2]; ip, in saline",220 mg/kg
same,LD50 at 1 week,"[2]; po, in distilled water, fasted overnight",1270 mg/kg
same,Mean latency,"[3]; 10 mg/kg orally 60 minutes before acquisition trial, control group 155.3",185.8 s
same,Mean latency (seconds),"[3]; 30 mg/kg orally 60 minutes before acquisition trial, control group 155.3, p<0.01",230.0**1) seconds
same,Survival time (%),[4]; 10 mg/kg orally,122 ± 5 [1)**2)] %
same,Survival time (%),[4]; 30 mg/kg orally,151 ± 7 %
same,Mean latency (seconds),"[5]; 3 mg/kg (as free base) i.p. immediately after acquisition trial, control group 92.0",190.4 **2) seconds
same,Mean latency (seconds),"[5]; 10 mg/kg (as free base) i.p. immediately after acquisition trial, control group 92.0",185.1 ** seconds
same,Mean latency,"[5]; 10 mg/kg (as free base) p.o. 60 minutes before acquisition trial, control group 63.1",59.8 s
same,Mean latency (seconds),"[5]; 30 mg/kg (as free base) i.p. immediately after acquisition trial, control group 92.0",208.7 ** seconds
same,Mean latency (seconds),"[5]; 30 mg/kg (as free base) p.o. 60 minutes before acquisition trial, control group 63.1",144.6 ** seconds
same,Antioxidant activity (n=4) Mean ± standard error (%),[6]; 10 µM,6.4 ± 7.7%
same,Antioxidant activity (n=4) Mean ± standard error (%),[6]; 30 µM,27.1 ± 6.8%
same,Antioxidant activity (n=4) Mean ± standard error (%),[6]; 100 µM,77.9 ± 3.1%
same,Antioxidant activity (n=4) Mean ± standard error (%),[6]; 300 µM,93.4 ± 2.2%
same,IC50,"[6]; inhibition of autoxidation (MDA formation) on the brain homogenate, read-out: 50% inhibition concentration (IC₅₀)",52 µM
